In the supplement of paper PMC11061612:

Tests used:
Assay in all cases: combination Emax (second highest fraction inhibited in the dose matrix, 72 h); higher = more inhibition; extreme values may be limits of the assay
IGR-1 (Melanoma) = tested on: IGR-1 (Melanoma)
How it was run: (§1)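 After 24 hours at 37°C and 5% CO2 in 1536-well plates, cells in DMEM/F12 or RPMI plus 10% FBS received two-drug dose matrices for 72 hours. Viability came from CellTiter-Glo 2.0 luminescence and was scaled as inhibition, anchored at 0 by vehicle wells and at 1 by blank wells. Combination Emax is taken as the second-highest inhibition in the matrix, and Bliss excess as the observed combination effect less EA + EB − EA·EB, with EA and EB the single-agent effects.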

[1] = tested on: SW780 (Bladder Carcinoma)
How it was run: as §1

[2] = tested on: DB (B-Cell Non-Hodgkin's Lymphoma)
How it was run: as §1

[3] = tested on: CTV-1 (T-Lymphoblastic Leukemia)
How it was run: as §1

NCI-H2595 (Mesothelioma) = tested on: NCI-H2595 (Mesothelioma)
How it was run: as §1

RH-1 (Ewing's Sarcoma) = tested on: RH-1 (Ewing's Sarcoma)
How it was run: as §1

[4] = tested on: KARPAS-1106P (B-Cell Non-Hodgkin's Lymphoma)
How it was run: as §1

[5] = tested on: MFH-ino (Other Solid Carcinomas)
How it was run: as §1

[6] = tested on: NCI-H1781 (Lung Adenocarcinoma)
How it was run: as §1

SK-N-FI (Neuroblastoma) = tested on: SK-N-FI (Neuroblastoma)
How it was run: as §1

[7] = tested on: U-266 (Plasma Cell Myeloma)
How it was run: as §1

[8] = tested on: SW1990 (Pancreatic Carcinoma)
How it was run: as §1

[9] = tested on: DMS-273 (Small Cell Lung Carcinoma)
How it was run: as §1

[10] = tested on: KATOIII (Gastric Carcinoma)
How it was run: as §1

DSH1 (Bladder Carcinoma) = tested on: DSH1 (Bladder Carcinoma)
How it was run: as §1

[11] = tested on: NCI-H1299 (Non-Small Cell Lung Carcinoma)
How it was run: as §1

[12] = tested on: SW756 (Cervical Carcinoma)
How it was run: as §1

[13] = tested on: 697 (B-Lymphoblastic Leukemia)
How it was run: as §1

[14] = tested on: OCI-AML2 (Acute Myeloid Leukemia)
How it was run: as §1

[15] = tested on: NCI-H1694 (Small Cell Lung Carcinoma)
How it was run: as §1

| Structure (SMILES) | combination Emax (IGR-1 (Melanoma)) | combination Emax [1] | combination Emax [2] | combination Emax [3] | combination Emax (NCI-H2595 (Mesothelioma)) | combination Emax (RH-1 (Ewing's Sarcoma)) | combination Emax [4] | combination Emax [5] | combination Emax [6] | combination Emax (SK-N-FI (Neuroblastoma)) | combination Emax [7] | combination Emax [8] | combination Emax [9] | combination Emax [10] | combination Emax (DSH1 (Bladder Carcinoma)) | combination Emax [11] | combination Emax [12] | combination Emax [13] | combination Emax [14] | combination Emax [15] |
| --- | --- | --- | --- | --- | --- | --- | --- | --- | --- | --- | --- | --- | --- | --- | --- | --- | --- | --- | --- | --- |
| NC1(C(=O)N[C@@H](CCO)c2ccc(Cl)cc2)CCN(c2ncnc3[nH]ccc23)CC1 [Capivasertib] + Cn1cnc2c(F)c(Nc3ccc(Br)cc3Cl)c(C(=O)NOCCO)cc21 [Selumetinib] (first compound max 10 µM, 7x7, partner max 10 µM) | 0.915 | 0.421 | 0.422 | 0.852 | 0.29 | 0.317 | 0.586 | 0.556 | 0.695 | 0.614 | 0.694 | 0.368 | 0.837 | 0.431 | 0.954 | 0.615 | 0.448 | 0.617 | 1 | 0.204 |
| CN(CCO)CC[C@H](CSc1ccccc1)Nc1ccc(S(=O)(=O)NC(=O)c2ccc(N3CCC([C@@H](O)c4ccccc4-c4ccc(Cl)cc4)CC3)cc2)cc1S(=O)(=O)C(F)(F)F [AZD4320] + CN(C)CCCOc1ccc(-c2ccc3ncc4c(c3c2)n(C2CCOCC2)c(=O)n4C)cn1 [AZD0156] (first compound max 1 µM, 7x7, partner max 1 µM) | 0.342 | 0.521 | 0.933 | 0.211 | 0.12 | 0.359 | 0.146 | 0.102 | 0.183 | 0.17 | 0.506 | 0.079 | 0.247 | 0.0663 | 0.369 | 0.149 | 0.133 | 1 | 1 | 0.718 |
| CC1(C)CCC(CN2CCN(c3ccc(C(=O)NS(=O)(=O)c4ccc(NCC5CCOCC5)c([N+](=O)[O-])c4)c(Oc4cnc5[nH]ccc5c4)c3)CC2)=C(c2ccc(Cl)cc2)C1 [Venetoclax] + CCN(CCO)CCCOc1ccc2c(Nc3cc(CC(=O)Nc4cccc(F)c4)[nH]n3)ncnc2c1 [AZD2811] (first compound max 1 µM, 7x7, partner max 1 µM) | 0.349 | 0.193 | 0.965 | 0.184 | 0.611 | 0.951 | 0.46 | 0.191 | 0.577 | 0.198 | 0.614 | 0.625 | 0.806 | 0.17 | 0.271 | 0.19 | 0.158 | 1 | 1 | 0.485 |
| COc1cccc2c1C(=O)c1c(O)c3c(c(O)c1C2=O)C[C@@](O)(C(=O)CO)C[C@@H]3O[C@H]1C[C@H](N)[C@H](O)[C@H](C)O1 [Doxorubicin] + Cc1cc2ncnn2cc1Nc1ncc2c(n1)n(C1CCOCC1)c(=O)n2C [AZD7648] (first compound max 1 µM, 7x7, partner max 10 µM) | 0.697 | 0.235 | 0.896 | 1 | 0.531 | 1 | 0.988 | 0.608 | 0.932 | 0.373 | 0.612 | 0.303 | 0.866 | 0.319 | 0.86 | 0.66 | 0.514 | 1 | 1 | 0.921 |
